Source: patent US20250042886A1, “BIS(HETERO)ARYL THIOETHER OXADIAZINES AS FUNGICIDAL COMPOUNDS” (Bayer Aktiengesellschaft, priority 2021, published 2025)

Experiments:
Pyrenophora teres = Pyrenophora teres in vitro cell test; assay type: cell-based; settings: 144 h, liquid culture, 6 days incubation, read-out: efficacy (inhibition of fungal growth); for inhibition at 50 µM: 50 μMol/l of active ingredient
Method: (§1) B-8. Pyrenophora teres In Vitro Cell Test • Solvent: DMSO • Culture medium: 14.6 g anhydrous D-glucose (VWR), 7.1 g Mycological Peptone (Oxoid), 1.4 g granulated Yeast Extract (Merck), QSP 1 liter • Inoculum: spore suspension Fungicides were solubilized in DMSO and the solution used to prepare the required range of concentrations. […] A spore suspension of P. teres was prepared and diluted to the desired spore density. Fungicides were evaluated for their ability to inhibit spore germination and mycelium growth in liquid culture assay. The compounds were added in the desired concentration to the culture medium with spores. After 6 days incubation, fungi-toxicity of compounds was determined by spectrometric measurement of mycelium growth. Inhibition of fungal growth was determined by comparing the absorbance values in wells containing the fungicides with the absorbance in control wells without fungicides.

Alternaria alternata = Alternaria alternata in vitro cell test; assay type: cell-based; settings: 120 h, liquid culture, 5 days incubation, read-out: efficacy (inhibition of fungal growth); for inhibition at 50 µM: 50 μMol/l of active ingredient
Method: as §1, with “B-5. Alternaria alternata In” for “B-8. Pyrenophora teres In”, “Inoculum: spores” for “Inoculum: spore”, “of A. alternata” for “of P. teres”, “After 5” for “After 6”

[1] = Measurement of Log P values by HPLC on reversed phase columns (EEC directive 79/831 Annex V.A8); assay type: physicochemical; settings: Table 1, compounds of formula (I); method [a]: LC-UV, acidic range, 0.1% formic acid in water and acetonitrile
Pyricularia oryzae = test: microbe, parasite or virus in culture; assay type: cell-based; settings: 120 h; for inhibition at 50 µM: read-out: efficacy (inhibition of fungal growth), 50 μMol/l of active ingredient, liquid culture, 5 days incubation
Botrytis cinerea [2] = test: Botrytis cinerea in vitro cell test; assay type: cell-based; settings: 144 h, liquid culture, 6 days incubation, read-out: efficacy (inhibition of fungal growth); for inhibition at 50 µM: 50 μMol/l of active ingredient; for inhibition at 20 ppm: 20 ppm of active ingredient
Method: B-9. Botrytis cinerea In Vitro Cell Test • Solvent: DMSO • Culture medium: 1 g KH2PO4 (VWR), 1 g K2HPO4 (VWR), 0.5 g Urea (VWR), 3 g KNO3 (Prolabo), 10 g saccharose (VWR), 0.5 g MgSO4, 7H2O (Sigma), 0.07 g CaCl2, 2H2O (Prolabo), 0.2 mg MnSO4, H2O (Sigma), 0.6 mg CuSO4, 5H2O (Sigma), 7.9 mg ZnSO4, 7H2O (Sigma), 0.1 mg H3BO3 (Merck), 0.14 mg NaMoO4, 2H2O (Sigma), 2 mg thiamine (Sigma), 0.1 mg biotine (VWR), 4 mg FeSO4, 7H2O (Sigma), QSP 1 liter • Inoculum: spore suspension Fungicides were solubilized in DMSO and the solution used to prepare the required range of concentrations. […] A spore suspension of B. cinerea was prepared and diluted to the desired spore density. Fungicides were evaluated for their ability to inhibit spore germination and mycelium growth in liquid culture assay. The compounds were added in the desired concentration to the culture medium with spores. After 6 days incubation, fungi-toxicity of compounds was determined by spectrometric measurement of mycelium growth. Inhibition of fungal growth was determined by comparing the absorbance values in wells containing the fungicides with the absorbance in control wells without fungicides.

[3] = system: Colletotrichum lindemuthianum; test: Colletotrichum lindemuthianum in vitro cell test; assay type: cell-based; settings: 144 h, liquid culture, 6 days incubation, read-out: efficacy (inhibition of fungal growth); for inhibition at 50 µM: 50 μMol/l of active ingredient; for inhibition at 20 ppm: 20 ppm of active ingredient
Method: as §1, with “B-7. Colletotrichum lindemuthianum In” for “B-8. Pyrenophora teres In”, “Inoculum: spores” for “Inoculum: spore”, “of C. lindemuthianum” for “of P. teres”, “inhibit spores” for “inhibit spore”

Fusarium culmorum = Fusarium culmorum in vitro cell test; assay type: cell-based; settings: 120 h, 50 μMol/l of active ingredient, liquid culture, 5 days incubation, read-out: efficacy (inhibition of fungal growth)
Method: B-10. Fusarium culmorum In Vitro Cell Test • Solvent: DMSO • Culture medium: 1 g KH2PO4 (VWR), 1 g K2HPO4 (VWR), 0.5 g Urea (VWR), 3 g KNO3 (Prolabo), 10 g saccharose (VWR), 0.5 g MgSO4, 7H2O (Sigma), 0.07 g CaCl2, 2H2O (Prolabo), 0.2 mg MnSO4, H2O (Sigma), 0.6 mg CuSO4, 5H2O (Sigma), 7.9 mg ZnSO4, 7H2O (Sigma), 0.1 mg H3BO3 (Merck), 0.14 mg NaMoO4, 2H2O (Sigma), 2 mg thiamine (Sigma), 0.1 mg biotine (VWR), 4 mg FeSO4, 7H2O (Sigma), QSP 1 liter • Inoculum: spores suspension
Fungicides were solubilized in DMSO and the solution used to prepare the required range of concentrations. The final concentration of DMSO used in the assay was ≤1%.
A spore suspension of F. culmorum was prepared and diluted to the desired spore density.
Fungicides were evaluated for their ability to inhibit spore germination and mycelium growth in liquid culture assay. The compounds were added in the desired concentration to the culture medium with spores. After 5 days incubation, fungi-toxicity of compounds was determined by spectrometric measurement of mycelium growth. Inhibition of fungal growth was determined by comparing the absorbance values in wells containing the fungicides with the absorbance in control wells without fungicides.

Botrytis cinerea [4] = test: In vivo preventive test on Botrytis cinerea (grey mould); settings: 500 ppm of active ingredient, sprayed on young gherkin or cabbage plants 24 h before inoculation, evaluated 4 to 5 days after inoculation, read-out: efficacy
Method: (§2) The active ingredients were made soluble and homogenized in a mixture of Dimethyl sulfoxide/Acetone//Tween® 80 and then diluted in water to the desired concentration. The young plants of gherkin or cabbage were treated by spraying the active ingredient prepared as described above. Control plants were treated only with an aqueous solution of Acetone/Dimethyl sulfoxide/Tween® 80. After 24 hours, the plants were contaminated by spraying the leaves with an aqueous suspension of Botrytis cinerea spores.

Alternaria brassicae = test: In vivo preventive test on Alternaria brassicae (leaf spot on radish or cabbage); settings: 500 ppm of active ingredient, sprayed on young radish or cabbage plants 24 h before inoculation, evaluated 3 to 4 days after inoculation, read-out: efficacy
Method: as §2, with “B-1. […] The active” for “The active”, “plants of radish or cabbage” for “plants of gherkin or cabbage”, “suspension of Alternaria brassicae spores.” for “suspension of Botrytis cinerea spores.”

Row | Compound | inhibition at 50 µM (Pyrenophora teres) [%] | inhibition at 50 µM (Alternaria alternata) [%] | chromatographic logP [1] | inhibition at 50 µM (Pyricularia oryzae) [%] | inhibition at 50 µM (Botrytis cinerea [2]) [%] | inhibition at 50 µM [3] [%] | inhibition at 50 µM (Fusarium culmorum) [%] | pest or weed control at 500 ppm (Botrytis cinerea [4]) [%] | pest or weed control at 500 ppm (Alternaria brassicae) [%] | inhibition at 20 ppm (Alternaria alternata; 20 ppm of active ingredient) [%] | inhibition at 20 ppm (Botrytis cinerea [2]) [%] | inhibition at 20 ppm [3] [%] | inhibition at 20 ppm (Pyrenophora teres; 20 ppm of active ingredient) [%] | inhibition at 20 ppm (Pyricularia oryzae; read-out: efficacy (inhibition of fungal growth), 20 ppm of active ingredient, liquid culture, 5 days incubation) [%]
1 | Cc1ccc([C@@H]2CON=C(c3c(Sc4cccc(Cl)c4Cl)nnc(C)c3C)N2)s1 (racemic) [Compound I-136] | 90 to 100 | 80 to 89 | 3.31 | 70 to 79 | 90 to 100 |  |  |  |  |  |  |  |  | 
2 | Cc1cc([C@@H]2CON=C(c3c(Sc4cccc(Cl)c4Cl)nnc(C)c3C)N2)c(C)s1 (racemic) [Compound I-118] | 90 to 100 | 90 to 100 | 3.7 | 80 to 89 | 90 to 100 | 80 to 89 |  |  |  |  |  |  |  | 
3 | Cc1cc([C@@H]2CON=C(c3c(Sc4ccc5ccccc5c4)nnc(C)c3C)N2)c(C)s1 (racemic) [Compound I-122] | 80 to 89 | 70 to 79 | 3.68 |  |  | 70 to 79 | 90 to 100 |  |  |  |  |  |  | 
4 | Cc1ccc([C@H]2CON=C(c3c(Sc4cccc(OC(F)(F)F)c4)nnc4ccccc34)N2)s1 (racemic) [Compound I-133] |  |  | 3.92 | 70 to 79 | 90 to 100 | 90 to 100 | 70 to 79 | 90 to 100 |  |  |  |  |  | 
5 | COc1ccc(Sc2nnc(C)c(C)c2C2=NOC[C@@H](c3cc(C)sc3C)N2)cc1 (racemic) [Compound I-049] | 70 to 79 | 70 to 79 | 3.11 |  |  |  |  |  |  |  |  |  |  | 
6 | Cc1cc([C@H]2CON=C(c3c(Sc4ccc(F)c(Cl)c4)nnc(C)c3C)N2)c(C)s1 (racemic) [Compound I-088] |  |  | 3.62 |  | 90 to 100 | 90 to 100 |  | 90 to 100 | 70 to 79 |  |  |  |  | 
7 | Cc1cccc(Sc2nnc(Cl)cc2C2=NOC[C@@H](Cc3ccc(Cl)cc3Cl)N2)c1 (racemic) [Compound I-014] |  |  | 4.59 |  |  |  |  |  |  | 70 to 79 | 90 to 100 |  |  | 
8 | COc1cccc(Sc2nnc3ccccc3c2C2=NOC[C@@H](Cc3ccc(C)cc3C)N2)c1 (racemic) [Compound I-006] |  |  | 3.84 |  |  |  |  | 90 to 100 | 90 to 100 |  | 90 to 100 | 90 to 100 |  | 
9 | Cc1cc([C@H]2CON=C(c3c(Sc4ccc(C)c(C)c4)nnc(C)c3C)N2)c(C)s1 (racemic) [Compound I-111] | 90 to 100 | 70 to 79 | 3.64 |  | 90 to 100 | 90 to 100 | 90 to 100 | 80 to 89 |  |  |  |  |  | 
10 | Cc1ccc([C@H]2CON=C(c3c(Sc4ccc(F)cc4)nnc4ccccc34)N2)s1 (racemic) [Compound I-060] | 70 to 79 |  | 3.29 |  | 90 to 100 |  | 70 to 79 | 90 to 100 | 70 to 79 |  |  |  |  | 
11 | Cc1ccc([C@H]2CON=C(c3c(Sc4ccc(F)c(F)c4)nnc4ccccc34)N2)s1 (racemic) [Compound I-124] |  |  | 3.44 | 70 to 79 | 90 to 100 | 70 to 79 | 80 to 89 | 90 to 100 | 80 to 89 |  |  |  |  | 
12 | Cc1ccc([C@H]2CON=C(c3c(Sc4ccc(F)c(Cl)c4)nnc4ccccc34)N2)s1 (racemic) [Compound I-068] | 70 to 79 |  | 3.74 |  | 90 to 100 | 90 to 100 |  | 90 to 100 | 80 to 89 |  |  |  |  | 
13 | Cc1cccc(Sc2nnc(C)c(C)c2C2=NOC[C@H](c3cc(C)sc3C)N2)n1 (racemic) [Compound I-089] |  |  | 2.56 |  | 70 to 79 |  |  | 80 to 89 | 70 to 79 |  |  |  |  | 
14 | Cc1cc([C@H]2CON=C(c3c(Sc4ccccn4)nnc(C)c3C)N2)c(C)s1 (racemic) [Compound I-036] | 70 to 79 |  | 2.32 |  |  | 90 to 100 | 90 to 100 |  |  |  |  |  |  | 
15 | Clc1cccc(Sc2nnc(Cl)cc2C2=NOC[C@@H](Cc3ccc(Cl)cc3Cl)N2)c1 (racemic) [Compound I-015] |  |  | 4.73 |  |  |  |  | 90 to 100 | 80 to 89 |  | 90 to 100 | 90 to 100 | 90 to 100 | 90 to 100
16 | Cc1ccc([C@H]2CON=C(c3c(Sc4ccc(C)c(C)c4)nnc4ccccc34)N2)s1 (racemic) [Compound I-080] |  |  | 3.76 | 80 to 89 | 90 to 100 |  | 90 to 100 | 90 to 100 |  |  |  |  |  | 
17 | Cc1cc([C@@H]2CON=C(c3c(Sc4ccccc4C)nnc(C)c3C)N2)c(C)s1 (racemic) [Compound I-121] |  |  | 3.29 |  | 90 to 100 |  |  | 90 to 100 | 80 to 89 |  |  |  |  | 
